Measured values reported in US7619059B2, “Bimolecular optical probes” (Life Technologies Corporation, priority 2003, dated 2009).

Key:
[1] = molecular target: T1, GSK3β (Homo sapiens, UniProt P49841); experiment: Z′-Lyte TR-FRET kinase assay, GSK3β; assay type: biochemical; details: 400 nM substrate, 0.25 μg/ml GSK3β; read-out: ATP EC50 (ATP titration) GSK3β
T1 construct: purchased PV3270/29135A

[2] = molecular target: T2, GSK3α (Homo sapiens, UniProt P49840); experiment: Z′-Lyte TR-FRET kinase assay, GSK3α; assay type: biochemical; details: 400 nM substrate, 0.03 μg/ml GSK3α; read-out: ATP EC50 (ATP titration) GSK3α
T2 construct: purchased PV3322/30387A
T2 sequence (P49840 whole entry): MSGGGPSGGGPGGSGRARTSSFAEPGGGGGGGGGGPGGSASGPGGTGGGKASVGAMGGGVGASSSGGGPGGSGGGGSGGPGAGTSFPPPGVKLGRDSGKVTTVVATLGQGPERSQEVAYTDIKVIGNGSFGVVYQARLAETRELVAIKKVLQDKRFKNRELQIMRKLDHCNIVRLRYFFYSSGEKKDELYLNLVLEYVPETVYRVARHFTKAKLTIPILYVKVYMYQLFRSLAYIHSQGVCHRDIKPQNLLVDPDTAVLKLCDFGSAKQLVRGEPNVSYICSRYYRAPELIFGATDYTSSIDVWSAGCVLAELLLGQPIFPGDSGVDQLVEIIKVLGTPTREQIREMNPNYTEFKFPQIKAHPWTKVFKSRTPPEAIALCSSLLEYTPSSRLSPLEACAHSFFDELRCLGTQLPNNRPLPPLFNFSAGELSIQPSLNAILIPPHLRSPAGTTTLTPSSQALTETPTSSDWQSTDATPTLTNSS

T1 sequence (P49841 whole entry): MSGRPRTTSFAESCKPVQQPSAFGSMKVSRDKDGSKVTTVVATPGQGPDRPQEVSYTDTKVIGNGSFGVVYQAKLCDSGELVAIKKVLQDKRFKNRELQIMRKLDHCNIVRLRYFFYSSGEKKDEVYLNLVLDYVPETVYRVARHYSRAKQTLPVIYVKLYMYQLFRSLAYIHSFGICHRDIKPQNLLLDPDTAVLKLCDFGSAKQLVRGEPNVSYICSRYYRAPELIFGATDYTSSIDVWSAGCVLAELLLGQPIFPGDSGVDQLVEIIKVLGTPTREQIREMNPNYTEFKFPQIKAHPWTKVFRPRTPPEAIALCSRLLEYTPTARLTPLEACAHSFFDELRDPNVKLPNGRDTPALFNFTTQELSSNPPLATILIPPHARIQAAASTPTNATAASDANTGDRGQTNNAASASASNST

EC50 [1]: ~10 µM | EC50 [2]: ~10 µM
SMILES: Nc1ncnc2c1ncn2[C@@H]1O[C@H](COP(=O)(O)OP(=O)(O)OP(=O)(O)O)[C@@H](O)[C@H]1O [ATP]
